In patent US20250340538A1, “IMIDAZOLONE DERIVATIVES AS INHIBITORS OF PROTEIN KINASES IN PARTICULAR DYRK1A, CLK1 AND/OR CLK4” (PERHA PHARMACEUTICALS, priority 2021, published 2025):
Like-named read-outs stand apart in the source and are kept apart here.

What was measured:
Assay type in all cases: biochemical
[1] = biological target: T1, CLK4 (Homo sapiens, UniProt Q9HAZ1); assay: Radiometric protein kinase assay (33PanQinase Activity Assay), CLK4; conditions: read-out: IC50 on CLK4 (most potent CLK4 inhibitors)
T1 construct: GST-fusion or His-tag (not specified per kinase); purchased ProQinase GmbH; host or cells: Sf9 insect cells or E. coli (not specified per kinase)
Experimental: (§1) Assays were performed by ProQinase GmbH (Engesserstr. 4, D-79108 Freiburg, Germany. www.proqinase.com). The IC50 profile of all compounds was determined using 12 protein kinases (CDK2/cyclin E, CK1ε, CLK1, 2, 3, 4, DYRK1A, 1B, 2, 3, 4, GSK3β).
(§2) The compounds were provided as […] in 100% DMSO. Prior to testing, the 1 μM stock solutions were subjected to a serial, semi-logarithmic dilution using 100% DMSO as a solvent. […] In the process, 90 μl H2O were added to each well of each compound dilution plate. To minimize potential precipitation, the H2O was added to each plate only a few minutes before the transfer of the compound solutions into the assay plates. The plate was shaken thoroughly, resulting in a compound dilution plate/10% DMSO.
(§3) For the assays (see below), 5 μL solution from each well of the compound dilution plates/10% DMSO were transferred into the assay plates. The final volume of the assay was 50 μL. All compounds were tested at 10 final assay concentrations in the range from 10 μM to 30 nM. The final DMSO concentration in the reaction cocktails was 1% in all cases.
(§4) All protein kinases provided by ProQinase were expressed in Sf9 insect cells or in E. coli as recombinant GST-fusion proteins or His-tagged proteins, either as full-length or enzymatically active fragments. All kinases were produced from human cDNAs and purified by either GSH-affinity chromatography or immobilized metal. Affinity tags were removed from a number of kinases during purification. The purity of the protein kinases was examined by SDS-PAGE/Coomassie staining, the identity was checked by mass spectroscopy.
(§5) A radiometric protein kinase assay (33PanQinase® Activity Assay) was used for measuring the kinase activity of the 12 protein kinases. All kinase assays were performed in 96-well FlashPlates™ from PerkinElmer (Boston, MA, USA) in a 50 μL reaction volume. The reaction cocktail was pipetted in four steps in the following order: • 25 μL of assay buffer (standard buffer/[γ-^33P]-ATP), • 10 μL of ATP solution (in H2O), • 5 μL of test compound (in 10% DMSO), • 10 μL of enzyme/substrate mixture.
(§6) The reaction cocktails were incubated at 30° C. for 60 minutes. The reaction was stopped with 50 μL of 2% (v/v) H3PO4, plates were aspirated and washed two times with 200 μL 0.9% (w/v) NaCl. Incorporation of ^33Pi was determined with a microplate scintillation counter (Microbeta, Wallac). The IC50 values for all compounds were calculated from the dose response curves
(§7) As a parameter for assay quality, the Z′-factor (Zhang et al., J. Biomol. Screen. 2: 67-73, 1999) for the low and high controls of each assay plate (n=8) was used. ProQinase's criterion for repetition of an assay plate is a Z′-factor below 0.4 (Iversen et al., J. Biomol. Screen. 3: 247-252, 2006).

[2] = biological target: T2, DYRK2 (Homo sapiens, UniProt Q92630); assay: Radiometric protein kinase assay (33PanQinase Activity Assay), DYRK2; conditions: read-out: IC50 on DYRK2 (most potent DYRK2 inhibitors)
T2 construct: GST-fusion or His-tag (not specified per kinase); purchased ProQinase GmbH; host or cells: Sf9 insect cells or E. coli (not specified per kinase)
T2 sequence (Q92630 1-601): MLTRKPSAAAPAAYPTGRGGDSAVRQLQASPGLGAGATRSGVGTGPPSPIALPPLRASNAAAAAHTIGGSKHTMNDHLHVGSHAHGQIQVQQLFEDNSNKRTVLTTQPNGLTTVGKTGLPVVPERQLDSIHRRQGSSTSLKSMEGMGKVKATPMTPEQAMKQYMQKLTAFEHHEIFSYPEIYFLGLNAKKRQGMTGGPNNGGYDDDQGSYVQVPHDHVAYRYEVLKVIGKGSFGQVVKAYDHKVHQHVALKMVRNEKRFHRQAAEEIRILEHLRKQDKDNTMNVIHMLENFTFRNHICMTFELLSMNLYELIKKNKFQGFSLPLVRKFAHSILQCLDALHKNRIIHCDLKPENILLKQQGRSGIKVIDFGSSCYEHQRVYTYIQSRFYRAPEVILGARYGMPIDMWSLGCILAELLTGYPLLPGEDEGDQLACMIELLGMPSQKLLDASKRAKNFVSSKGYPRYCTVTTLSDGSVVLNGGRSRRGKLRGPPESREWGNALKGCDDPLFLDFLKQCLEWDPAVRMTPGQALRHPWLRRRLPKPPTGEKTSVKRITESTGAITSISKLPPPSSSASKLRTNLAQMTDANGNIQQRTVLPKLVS
Experimental: as §1, §2, §3, §4, §5, §6, §7

[3] = biological target: T3, CLK1 (Homo sapiens, UniProt P49759); assay: Radiometric protein kinase assay (33PanQinase Activity Assay), CLK1
T3 construct: GST-fusion or His-tag (not specified per kinase); purchased ProQinase GmbH; host or cells: Sf9 insect cells or E. coli (not specified per kinase)
How it was run: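 33P incorporation counted by microplate scintillation after H3PO4 stop and NaCl washes; IC50 fitted from dose-response curves. Reactions of kinase/substrate, [γ-33P]-ATP and compound ran 60 min at 30 °C, 1% DMSO final, 10 concentrations (10 μM–30 nM).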

[4] = biological target: T4, DYRK4 (Homo sapiens, UniProt Q9NR20); assay: Radiometric protein kinase assay (33PanQinase Activity Assay), DYRK4; conditions: read-out: IC50 on DYRK4 (most potent DYRK4 inhibitors)
T4 construct: GST-fusion or His-tag (not specified per kinase); purchased ProQinase GmbH; host or cells: Sf9 insect cells or E. coli (not specified per kinase)
T4 sequence (Q9NR20 1-520): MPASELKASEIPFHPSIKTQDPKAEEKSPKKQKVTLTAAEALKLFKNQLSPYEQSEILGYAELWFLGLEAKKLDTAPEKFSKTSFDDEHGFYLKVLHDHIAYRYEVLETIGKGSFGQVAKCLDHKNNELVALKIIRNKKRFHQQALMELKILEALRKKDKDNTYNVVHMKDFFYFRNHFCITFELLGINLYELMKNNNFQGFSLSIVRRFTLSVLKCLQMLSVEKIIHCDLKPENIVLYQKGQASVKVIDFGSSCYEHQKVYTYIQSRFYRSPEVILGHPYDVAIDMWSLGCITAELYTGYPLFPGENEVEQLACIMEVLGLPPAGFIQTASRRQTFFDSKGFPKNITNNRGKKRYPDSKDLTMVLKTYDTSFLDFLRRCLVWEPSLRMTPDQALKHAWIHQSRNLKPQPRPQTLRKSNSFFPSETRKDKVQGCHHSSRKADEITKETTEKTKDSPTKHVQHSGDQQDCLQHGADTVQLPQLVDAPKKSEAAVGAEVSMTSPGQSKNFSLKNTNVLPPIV
Experimental: as §1, §2
as §3, with “cases. […]” for “cases.”
The reaction cocktails were incubated at 30° C. for 60 minutes. […] Incorporation of ^33Pi was determined with a microplate scintillation counter (Microbeta, Wallac). The IC50 values for all compounds were calculated from the dose response curves […]

[5] = biological target: T5, DYRK1A (Homo sapiens, UniProt Q13627); assay: Radiometric protein kinase assay (33PanQinase Activity Assay), DYRK1A; conditions: for Selectivity Class DYRK1A vs. CLK1: ratio of IC50 on CLK1 over IC50 on DYRK1A; for Selectivity Class DYRK1A vs. DYRK1B: ratio of IC50 on DYRK1B over IC50 on DYRK1A
T5 construct: GST-fusion or His-tag (not specified per kinase); purchased ProQinase GmbH; host or cells: Sf9 insect cells or E. coli (not specified per kinase)
How it was run: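 Recombinant human kinase, expressed in Sf9 or E. coli, in a radiometric [γ-33P]-ATP assay at 30 °C for 60 min. Compounds tested at 10 concentrations from 10 μM to 30 nM, 1% DMSO final. 33Pi incorporation measured by scintillation counting; IC50 from dose-response curves.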

[6] = biological target: T6, CLK3 (Homo sapiens, UniProt P49761); assay: Radiometric protein kinase assay (33PanQinase Activity Assay), CLK3; conditions: read-out: IC50 on CLK3 (most potent CLK3 inhibitors)
T6 construct: GST-fusion or His-tag (not specified per kinase); purchased ProQinase GmbH; host or cells: Sf9 insect cells or E. coli (not specified per kinase)
Experimental: as §1, §2, §3, §4, §5, §6, §7

[7] = biological target: T7, DYRK1B (Homo sapiens, UniProt Q9Y463); assay: Radiometric protein kinase assay (33PanQinase Activity Assay), DYRK1B; conditions: read-out: IC50 on DYRK1B (most potent DYRK1B inhibitors)
T7 construct: GST-fusion or His-tag (not specified per kinase); purchased ProQinase GmbH; host or cells: Sf9 insect cells or E. coli (not specified per kinase)
Experimental: as §1, §2, §3, §4, §5, §6, §7

[8] = biological target: T8, DYRK3 (Homo sapiens, UniProt O43781); assay: Radiometric protein kinase assay (33PanQinase Activity Assay), DYRK3; conditions: read-out: IC50 on DYRK3 (most potent DYRK3 inhibitors)
T8 construct: GST-fusion or His-tag (not specified per kinase); purchased ProQinase GmbH; host or cells: Sf9 insect cells or E. coli (not specified per kinase)
T8 sequence (O43781 1-588): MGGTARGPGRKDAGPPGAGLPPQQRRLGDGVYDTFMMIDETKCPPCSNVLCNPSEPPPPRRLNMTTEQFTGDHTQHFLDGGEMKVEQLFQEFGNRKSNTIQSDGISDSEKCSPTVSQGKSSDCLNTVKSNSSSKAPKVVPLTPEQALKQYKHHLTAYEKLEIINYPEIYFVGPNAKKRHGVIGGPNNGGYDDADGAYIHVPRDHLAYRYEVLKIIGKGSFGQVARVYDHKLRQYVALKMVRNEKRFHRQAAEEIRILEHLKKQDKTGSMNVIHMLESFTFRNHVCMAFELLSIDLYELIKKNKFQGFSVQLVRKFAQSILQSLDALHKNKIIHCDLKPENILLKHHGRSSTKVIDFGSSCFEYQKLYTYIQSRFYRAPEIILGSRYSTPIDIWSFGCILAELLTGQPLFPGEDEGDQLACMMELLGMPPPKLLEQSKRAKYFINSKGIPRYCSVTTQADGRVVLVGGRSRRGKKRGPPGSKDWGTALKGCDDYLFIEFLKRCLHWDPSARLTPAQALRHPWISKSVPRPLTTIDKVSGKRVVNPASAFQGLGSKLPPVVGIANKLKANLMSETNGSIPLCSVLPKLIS
Experimental: as §1, §2, §3, §4, §5, §6, §7

[9] = biological target: T9, CLK2 (Homo sapiens, UniProt P49760); assay: Radiometric protein kinase assay (33PanQinase Activity Assay), CLK2; conditions: read-out: IC50 on CLK2 (most potent CLK2 inhibitors)
T9 construct: GST-fusion or His-tag (not specified per kinase); purchased ProQinase GmbH; host or cells: Sf9 insect cells or E. coli (not specified per kinase)
Experimental: as §1, §2, §3, §4, §5, §6, §7

[10] = IC50 class A to E, read-out: Potency Class CLK1
[11] = class by IC50 on CLK1, from dose-response curves, read-out: Potency Class CLK1
[12] = IC50 class A to E, read-out: Potency Class DYRK1A
[13] = class by IC50 on DYRK1A, from dose-response curves, read-out: Potency Class DYRK1A
[14] = read-out: IC50 on DYRK1A (most potent DYRK1A inhibitors)

T1 sequence (Q9HAZ1 whole entry, the tested form may be a part): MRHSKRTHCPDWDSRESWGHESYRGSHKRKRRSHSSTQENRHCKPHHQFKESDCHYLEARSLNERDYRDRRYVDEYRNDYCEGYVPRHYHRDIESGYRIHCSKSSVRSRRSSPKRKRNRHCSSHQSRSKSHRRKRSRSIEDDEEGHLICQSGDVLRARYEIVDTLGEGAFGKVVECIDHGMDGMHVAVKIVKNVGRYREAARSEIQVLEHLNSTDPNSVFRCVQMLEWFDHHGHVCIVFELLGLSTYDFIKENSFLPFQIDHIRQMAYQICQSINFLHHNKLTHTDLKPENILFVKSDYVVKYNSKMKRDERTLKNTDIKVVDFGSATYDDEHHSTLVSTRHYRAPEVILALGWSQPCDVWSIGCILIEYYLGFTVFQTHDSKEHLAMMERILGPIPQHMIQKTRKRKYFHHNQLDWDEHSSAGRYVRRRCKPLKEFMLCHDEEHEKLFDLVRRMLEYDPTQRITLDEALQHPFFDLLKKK
T3 sequence (P49759 whole entry, the tested form may be a part): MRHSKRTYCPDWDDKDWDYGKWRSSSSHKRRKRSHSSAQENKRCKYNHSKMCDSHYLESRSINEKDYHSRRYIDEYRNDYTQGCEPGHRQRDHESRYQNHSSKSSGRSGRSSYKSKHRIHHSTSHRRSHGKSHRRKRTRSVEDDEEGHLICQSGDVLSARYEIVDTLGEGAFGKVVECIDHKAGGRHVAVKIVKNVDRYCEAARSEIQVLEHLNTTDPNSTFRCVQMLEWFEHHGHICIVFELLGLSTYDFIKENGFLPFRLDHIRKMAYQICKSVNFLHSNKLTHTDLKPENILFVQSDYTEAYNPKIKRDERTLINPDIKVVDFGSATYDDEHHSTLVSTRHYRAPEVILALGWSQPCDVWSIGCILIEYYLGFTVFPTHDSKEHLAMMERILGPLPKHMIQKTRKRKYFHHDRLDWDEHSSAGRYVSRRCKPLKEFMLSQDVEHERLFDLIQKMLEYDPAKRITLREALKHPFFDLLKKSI
T6 sequence (P49761 whole entry, the tested form may be a part): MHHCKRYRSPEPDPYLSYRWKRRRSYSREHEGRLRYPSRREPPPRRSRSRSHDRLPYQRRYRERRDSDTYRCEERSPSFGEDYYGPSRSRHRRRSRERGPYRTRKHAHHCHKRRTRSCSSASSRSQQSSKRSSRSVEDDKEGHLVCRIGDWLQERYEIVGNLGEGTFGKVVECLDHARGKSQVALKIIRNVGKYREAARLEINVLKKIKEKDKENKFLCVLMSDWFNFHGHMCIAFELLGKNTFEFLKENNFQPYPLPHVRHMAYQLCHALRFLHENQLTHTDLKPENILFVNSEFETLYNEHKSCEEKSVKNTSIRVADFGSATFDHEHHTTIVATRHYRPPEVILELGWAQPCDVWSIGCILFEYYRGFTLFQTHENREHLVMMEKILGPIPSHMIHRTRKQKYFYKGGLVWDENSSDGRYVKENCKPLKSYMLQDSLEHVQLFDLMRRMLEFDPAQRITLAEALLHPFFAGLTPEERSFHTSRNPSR
T9 sequence (P49760 whole entry, the tested form may be a part): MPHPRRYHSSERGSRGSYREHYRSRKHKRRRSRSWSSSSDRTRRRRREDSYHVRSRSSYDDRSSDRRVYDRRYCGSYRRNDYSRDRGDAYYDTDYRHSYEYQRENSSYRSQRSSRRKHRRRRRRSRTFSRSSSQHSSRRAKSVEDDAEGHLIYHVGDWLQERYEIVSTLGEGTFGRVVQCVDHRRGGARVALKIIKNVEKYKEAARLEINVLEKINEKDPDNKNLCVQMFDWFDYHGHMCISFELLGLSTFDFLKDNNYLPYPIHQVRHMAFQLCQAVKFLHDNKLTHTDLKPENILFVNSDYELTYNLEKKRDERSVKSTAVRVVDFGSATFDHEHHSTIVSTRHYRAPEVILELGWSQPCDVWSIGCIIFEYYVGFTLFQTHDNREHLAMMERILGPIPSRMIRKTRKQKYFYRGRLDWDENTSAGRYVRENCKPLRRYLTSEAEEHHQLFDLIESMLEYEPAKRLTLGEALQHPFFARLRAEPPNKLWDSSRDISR
T7 sequence (Q9Y463 whole entry, the tested form may be a part): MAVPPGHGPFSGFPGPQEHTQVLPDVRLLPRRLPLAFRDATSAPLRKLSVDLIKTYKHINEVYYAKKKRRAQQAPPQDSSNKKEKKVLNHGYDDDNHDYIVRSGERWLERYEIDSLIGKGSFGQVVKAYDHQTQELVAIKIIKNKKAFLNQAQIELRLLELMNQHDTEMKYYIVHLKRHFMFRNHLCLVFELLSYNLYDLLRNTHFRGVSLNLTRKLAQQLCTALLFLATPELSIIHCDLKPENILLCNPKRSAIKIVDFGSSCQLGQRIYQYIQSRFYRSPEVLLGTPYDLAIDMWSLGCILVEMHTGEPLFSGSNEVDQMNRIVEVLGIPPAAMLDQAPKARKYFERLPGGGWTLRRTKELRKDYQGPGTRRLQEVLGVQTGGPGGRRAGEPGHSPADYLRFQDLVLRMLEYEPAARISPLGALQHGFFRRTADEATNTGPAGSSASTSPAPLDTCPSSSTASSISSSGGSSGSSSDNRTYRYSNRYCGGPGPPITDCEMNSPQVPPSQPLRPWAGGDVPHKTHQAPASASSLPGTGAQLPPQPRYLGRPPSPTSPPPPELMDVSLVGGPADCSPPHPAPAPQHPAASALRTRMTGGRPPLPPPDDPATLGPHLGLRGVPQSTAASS

O=C1NC(NC23CC4CC(CC2C4)C3)=N/C1=C\c1ccc2nccnc2c1 [Compound 16, (4Z)-2-(3-noradamantylamino)-4-(quinoxalin-6-ylmethylene)-1H-imidazol-5-one]
IC50 [1]: ≤ 10 nM
IC50 [2]: ≤ 250 nM
IC50 [3, 10]: > 50 nM
IC50 [3, 11]: > 50 nM
IC50 [4]: ≤ 300 nM
IC50 [5, 12]: 5 to 10 nM
IC50 [5, 13]: 5 to 10 nM
Selectivity Class DYRK1A vs. CLK1 [5]: I (ratio of IC50 on CLK1 or DYRK1B over IC50 on DYRK1A ≥10 fold (most DYRK1A-selective compounds))
Selectivity Class DYRK1A vs. DYRK1B [5]: II (ratio between 2 and 10 fold)
IC50 [5, 14]: ≤ 10 nM

O=C1NC(NC23CC4CC(CC(C4)C2)C3)=N/C1=C\c1ccc2ncccc2n1 [Compound 70, (4Z)-2-(1-adamantylamino)-4-(1,5-naphthyridin-2-ylmethylene)-1H-imidazol-5-one]
IC50 [1]: ≤ 10 nM
IC50 [6]: ≤ 500 nM
IC50 [3, 10]: 5 to 10 nM
IC50 [3, 11]: 5 to 10 nM
IC50 ([3]; read-out: IC50 on CLK1 (most potent CLK1 inhibitors)): ≤ 10 nM
IC50 [7]: ≤ 10 nM
IC50 [5, 12]: ≤ 5 nM
IC50 [5, 13]: < 5 nM
Selectivity Class DYRK1A vs. CLK1 [5]: II (ratio between 2 and 10 fold)
Selectivity Class DYRK1A vs. DYRK1B [5]: II (ratio between 2 and 10 fold)
IC50 [5, 14]: ≤ 10 nM
IC50 [8]: ≤ 250 nM
IC50 [9]: ≤ 100 nM

O=C1NC(NC2CCCCC2)=N/C1=C\c1ccc2ncccc2n1 [Compound 79, (4Z)-2-(cyclohexylamino)-4-(1,5-naphthyridin-2-ylmethylene)-1H-imidazol-5-one]
IC50 [1]: ≤ 10 nM
IC50 [6]: ≤ 500 nM
IC50 [3, 11]: 25 to 50 nM
IC50 [5, 13]: 25 to 50 nM
Selectivity Class DYRK1A vs. CLK1 [5]: III (ratio between 0.5 and 2 fold)
Selectivity Class DYRK1A vs. DYRK1B [5]: III (ratio between 0.5 and 2 fold)
IC50 [8]: ≤ 250 nM

COC[C@@H](CC(C)C)NC1=N/C(=C\c2ccc3ncccc3n2)C(=O)N1 [Compound 81, (4Z)-2-[[(1R)-1-(methoxymethyl)-3-methyl-butyl]amino]-4-(1,5-naphthyridin-2-ylmethylene)-1H-imidazol-5-one]
IC50 [6]: ≤ 500 nM
IC50 [3, 11]: > 50 nM
IC50 [5, 13]: > 50 nM
Selectivity Class DYRK1A vs. CLK1 [5]: III (ratio between 0.5 and 2 fold)
Selectivity Class DYRK1A vs. DYRK1B [5]: III (ratio between 0.5 and 2 fold)
